The results in this text go back to patent publication US20220168309A1 (F-STAR THERAPEUTICS, INC., priority 2019, published 2022).

The target of assay [1] is STING (Homo sapiens, UniProt Q86WV6). As to the kind of experiment: STING antagonist activity, cell-based ISG54 promoter-reporter luciferase measurement of IRF activity (THP-1 dual / RAW-ISG cells). To be noted: Antagonist Activity of Exemplary Compounds, cell line and agonist not given. In short, it runs like this: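 THP-1 dual or RAW-ISG cells (50,000/well) pretreated 1 h with compound (10 to 0.01 uM), then stimulated with SB 11285 (30 nM or 1 μM) or 2′3′-cGAMP (10 ug/mL or lipo mixture) for 18–20 h at 37° C. IRF-driven luciferase read by Quanti-Luc; % inhibition versus untreated or DMSO wells, IC50 by curve fit.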
Chain of STING (Q86WV6 whole entry): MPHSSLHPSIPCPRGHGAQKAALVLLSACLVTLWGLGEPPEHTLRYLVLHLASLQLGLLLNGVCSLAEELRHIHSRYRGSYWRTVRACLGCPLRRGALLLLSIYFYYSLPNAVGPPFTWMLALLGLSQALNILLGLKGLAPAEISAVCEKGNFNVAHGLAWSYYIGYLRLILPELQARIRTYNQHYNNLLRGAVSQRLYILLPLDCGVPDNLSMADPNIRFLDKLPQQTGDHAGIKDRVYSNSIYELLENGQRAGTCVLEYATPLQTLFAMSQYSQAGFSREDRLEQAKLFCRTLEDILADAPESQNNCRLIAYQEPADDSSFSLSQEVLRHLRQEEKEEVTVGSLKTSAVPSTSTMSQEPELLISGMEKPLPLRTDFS

The test system of assay [2] is TLR4/NF-κB activation. As to the kind of experiment: LPS-induced TLR4/NF-κB activation in RAW-WT cells. In kind it is cell-based.
Assay [3] has as its system TLR7/9 signaling pathways. The assay is described as follows: Effect on TLR7/9 signaling. It is filed as cell-based. How it is done: (§1) Evaluation of activity of compounds in THP-1 cells for their inhibition of STING, LPS, ppp-dsRNA & Poly IC induction: THP-1 cells were treated with different concentrations (10 uM to 0.01 uM) of Compounds for 1 h followed by STING/TLR3/TLR4/RIG-I/TLR7/9 activation by corresponding agonists. Lipofectamine (LTX) was used along with dsRNA, 2′-3′cGAMP & VACV-70. The cells were then incubated for 20 hours @ 37° C. before measuring IRF activation by using Quanti-Luc. The % inhibition was calculated as 100-[(luminescence of COI treated well/luminescence of non COI treated well)/100]×100. Cytotoxicity was measured by using Cell Titer Glo.

Assay [4] relates to RIG-I-IRF/NF-κB signaling pathway. The assay is described as follows: Inhibition of 3p-hpRNA-induced RIG-I-IRF/NF-κB signaling. In kind it is cell-based. The protocol:
as §1

For assay [5], the system named is cGAS-STING-IRF/NF-κB signaling pathway. The assay is described as follows: Inhibition of dsDNA-induced cGAS-STING-IRF/NF-κB signaling. It is filed as cell-based. How it is done:
as §1

pIC50: −log10 of the molar value. Like-named read-outs stand apart in the source and are kept apart here. Some results are limits rather than exact numbers.

As to `COC(=O)CCCCn1c(C)nc2nc(Cl)nc(S(=O)(=O)C(C)C)c21` [Compound 121, methyl 5-(2-chloro-6-(isopropylsulfonyl)-8-methyl-7H-purin-7-yl)pentanoate], the pIC50 in assay [1] (read-out: IC50) was 5.30 to 6.00.

With `Cc1nc2nc(Cl)nc(S(=O)(=O)C(C)C)c2n1CCCCCCCCCCCCCCCCN1CCOCC1` [Compound 142], the negative logarithm of the IC50 (pIC50) in assay [1] (read-out: IC50) was 6.00 to 9.00.

For `COC(=O)CCCCCO[C@@H]1CCN(CCCCCCn2c(C)nc3nc(Cl)nc(S(=O)(=O)C(C)C)c32)C1` [Compound 143, (3R)-1-(6-(2-chloro-6-(isopropylsulfonyl)-8-methyl-7H-purin-7-yl)hexyl)-3-((6-methoxy-6-oxohexyl)oxy)pyrrolidin-1-ium chloride], in assay [1] (read-out: IC50), the pIC50 was 5.30 to 6.00.

Take `COC(=O)CCCCCCCCCCCCCCCn1cnc2nccc(Cl)c21` [Compound 41, methyl 16-(7-chloro-1H-imidazo[4,5-b]pyridin-1-yl) hexadecanoate]: in assay [1] (read-out: IC50), the pIC50 was under 4.70.

For the compound `CCCCCCCCCCCCCCC(C(=O)O)n1ccc2c(Cl)nc(Cl)nc21` (centres unmarked) [Compound 17, 2-(2,4-dichloro-7H-pyrrolo[2,3-d]pyrimidin-7-yl)hexadecanoic acid], the pIC50 in assay [1] (read-out: IC50) was under 4.70.

`Cc1nc2nc(Cl)nc(Cl)c2n1CCCCCCCCCCN1CCOCC1` [Compound 102, 4-(10-(2,6-dichloro-8-methyl-7H-purin-7-yl)decyl)morpholine]: the pIC50 in assay [1] (read-out: IC50) was 6.00 to 9.00.

For the compound `COC(=O)CCCCCCCCCCCCCCCn1c(CO)nc2nc(Cl)nc(S(=O)(=O)C(C)C)c21` [Compound 114, Methyl 16-(2-chloro-8-(hydroxymethyl)-6-(isopropylsulfonyl)-7H-purin-7-yl)hexadecanoate], in assay [1] (read-out: IC50), the pIC50 is 6.00 to 9.00.

Regarding `CCOC(=O)Cn1cnc2nc(Cl)nc(Cl)c21` [Compound 8], the negative-log IC50 (pIC50) in assay [1] (read-out: IC50) was 6.00 to 9.00.

`Cc1nc2nc(Cl)nc(Cl)c2n1C` [Compound 82, 2,6-dichloro-7,8-dimethyl-7H-purine]: the pIC50 in assay [1] (read-out: IC50) is 5.00 to 5.30.

In the case of `Clc1nc(Cl)c2c(ncn2CCCCn2cnc3nc(Cl)nc(Cl)c32)n1` [Compound 55, 1,4-bis(2,6-dichloro-7H-purin-7-yl)butane], in assay [1] (read-out: IC50), the pIC50 is 5.00 to 5.30.

`N#CCCOP(O)(=S)OCCCCCCCCCCCCCCCCn1cnc2nc(Cl)nc(Cl)c21` (centres unmarked) [Compound 90, O-(2-cyanoethyl)O-(16-(2,6-dichloro-7H-purin-7-yl)hexadecyl) O-hydrogen phosphorothioate] gave a pIC50 in assay [1] of 5.00 to 5.30.

As for `COC(=O)CCCCCCCCCCCCCCCn1cnc2ncnc(SC)c21` [Compound 27, methyl 16-(6-(methylthio)-7H-purin-7-yl)hexadecanoate], the pIC50 in assay [1] (read-out: IC50) was 5.00 to 5.30.

Turning to `Cc1nc2nc(Cl)nc(SC(C)C)c2n1CCCCCCCCCC[N+]1([O-])CCOCC1` [Compound 129, 4-(10-(2-chloro-6-(isopropylthio)-8-methyl-7H-purin-7-yl)decyl)morpholine 4-oxide], in assay [1] (read-out: IC50), the pIC50 was under 4.70.

In the case of `Cc1nc2nc(Cl)nc(Cl)c2n1CCCCCCCCCCCCCCCC(=O)OC(CO)CO` [Compound 106, 1,3-dihydroxypropan-2-yl 16-(2,6-dichloro-8-methyl-7H-purin-7-yl)hexadecanoate], the pIC50 in assay [1] (read-out: IC50) was 5.30 to 6.00.

Regarding `O=C(O)CCCCCCCCCCCCCCCn1cnc2nc(Cl)nc(Cl)c21` [Compound 30, 16-(2,6-dichloro-7H-purin-7-yl)hexadecanoic acid], the pIC50 in assay [1] (read-out: IC50) was 5.30 to 6.00.

As for `[2H]C([2H])([2H])OC(=O)CCCCCCCCCCCCCCCn1c(C)nc2nc(Cl)nc(S(=O)(=O)C(C)C)c21` [Compound 160, Methyl-d3 16-(2-chloro-6-(isopropylsulfonyl)-8-methyl-7H-purin-7-yl)hexadecanoate], the pIC50 in assay [1] (read-out: IC50) was 6.00 to 9.00.

With `CCCCCCCCCCCCCCCCn1c(C)nc2nc(Cl)nc(Cl)c21` [Compound 77, 2,6-dichloro-7-hexadecyl-8-methyl-7H-purine], the pIC50 in assay [1] (read-out: IC50) was 6.00 to 9.00.

As to `Cc1nc2nc(Cl)nc(S(=O)(=O)C(C)C)c2n1CCCCCCCCCCN1CCOCC1` [Compound 137, 4-(10-(2-chloro-6-(isopropylsulfonyl)-8-methyl-7H-purin-7-yl)decyl)morpholine], the pIC50 in assay [1] (read-out: IC50) is 5.30 to 6.00.

For `COC(=O)CCCCCCCCCCCCCCCn1c(O)nc2c(Cl)nc(Cl)nc21` [Compound 53, methyl 16-(2,6-dichloro-8-oxo-7,8-dihydro-9H-purin-9-yl)hexadecanoate], in assay [1] (read-out: IC50), the pIC50 is under 4.70.

On to `OCCCCCCCCCCCCCCCCn1cnc2nc(Cl)nc(Cl)c21` [Compound 25, 16-(2,6-dichloro-7H-purin-7-yl)hexadecan-1-ol], for which, in assay [1] (read-out: IC50), the pIC50 is 6.00 to 9.00.

On to `COC(=O)CCCCCCCCCn1c(C)nc2nc(Cl)nc(S(=O)(=O)C(C)C)c21` [Compound 125, Methyl 10-(2-chloro-6-(isopropylsulfonyl)-8-methyl-7H-purin-7-yl)decanoate], for which the pIC50 in assay [1] (read-out: IC50) was 5.30 to 6.00.

Take `COC(=O)C(CCC(C(=O)OC)n1cnc2nc(Cl)nc(Cl)c21)n1cnc2nc(Cl)nc(Cl)c21` (centres unmarked) [Compound 57, dimethyl 2,5-bis(2,6-dichloro-7H-purin-7-yl)hexanedioate]: the pIC50 in assay [1] (read-out: IC50) is 5.30 to 6.00.

For `COC(=O)C(C)(C)n1cnc2nc(Cl)nc(Cl)c21` [Compound 56, methyl 2-(2,6-dichloro-7H-purin-7-yl)-2-methylpropanoate], the pIC50 in assay [1] (read-out: IC50) is under 4.70.

On to `Cc1nc2nc(Cl)nc(S(=O)(=O)C(C)C)c2n1CCCCCCCCCCCCCCCC(=O)OCC(C)C` [Compound 159, Isobutyl 16-(2-chloro-6-(isopropylsulfonyl)-8-methyl-7H-purin-7-yl)hexadecanoate], for which, in assay [1] (read-out: IC50), the pIC50 is 5.30 to 6.00.

In the case of `Cc1nc2nc(Cl)nc(S(C)(=O)=O)c2n1CCCCCCCCCCCCCCCC(=O)OC(C)C` [Compound 109, isopropyl 16-(2-chloro-8-methyl-6-(methylsulfonyl)-7H-purin-7-yl)hexadecanoate], in assay [1] (read-out: IC50), the pIC50 was 6.00 to 9.00.

For `Cc1nc2nc(Cl)nc(Cl)c2n1CCCCCCCCCCN1CCN(C)CC1` [Compound 113, 2,6-dichloro-8-methyl-7-(10-(4-methylpiperazin-1-yl)decyl)-7H-purine], the negative-log IC50 (pIC50) in assay [1] (read-out: IC50) was 5.30 to 6.00.

On to `Cc1nc2nc(Cl)nc(S(=O)(=O)C(C)C)c2n1CCCCCCCCCCCCCCCC(N)=O` [Compound 149, 16-(2-chloro-6-(isopropylsulfonyl)-8-methyl-7H-purin-7-yl)hexadecanamide], for which the pIC50 in assay [1] (read-out: IC50) is 6.00 to 9.00.

Take `CCCCCCCCCCCCCCCCn1cnc2nc(Cl)nc(Cl)c21` [Compound 26, 2,6-dichloro-7-hexadecyl-7H-purine]: the pIC50 in assay [1] (read-out: IC50) was 6.00 to 9.00.

For `Cc1nc2nc(Cl)nc(Cl)c2n1CCCCCCCCCCn1c(C)nc2nc(Cl)nc(Cl)c21` [Compound 61, 1,10-bis(2,6-dichloro-8-methyl-7H-purin-7-yl)decane], in assay [1] (read-out: IC50), the pIC50 was 6.00 to 9.00.

Turning to `COC(=O)CCCCCCCCCCCCCCCn1cnc2nc(Cl)nc(Cl)c21` [Compound 6], in assay [2], the “inhibition of LPS-induced TLR4/NF-κB activation” value is “seems to inhibit”. Moreover, in assay [3], the “effect on TLR7/9 signaling pathways” value is given as “does not affect”. Besides, the “inhibition of 3p-hpRNA-induced RIG-I-IRF/NF-κB signaling pathway” value in assay [4] is reported as “weakly inhibits”. The pIC50 in assay [1] was 6.00 to 9.00. Moreover, the “inhibition of dsDNA-induced cGAS-STING-IRF/NF-κB signaling pathway” value in assay [5] is “weakly inhibits”.

As for `COC(=O)CCCCCCn1cnc2nc(Cl)nc(Cl)c21` [Compound 13], the pIC50 in assay [1] (read-out: IC50) is 6.00 to 9.00.

For `CC(=O)OCCCCCn1cnc2nc(Cl)nc(Cl)c21` [Compound 33, 5-(2,6-dichloro-7H-purin-7-yl)pentyl acetate], the pIC50 in assay [1] (read-out: IC50) was 5.30 to 6.00.

Turning to `COC(=O)CCCCCCCCCCCCCCCn1c(C)nc2nc(Cl)nc(S(C)(=O)=O)c21` [Compound 69, methyl 16-(2-chloro-8-methyl-6-(methylsulfonyl)-7H-purin-7-yl)hexadecanoate], in assay [1] (read-out: IC50), the pIC50 is 6.00 to 9.00.

As for `Cc1nc2nc(Cl)nc(Cl)c2n1CCCCCCCCCCCCCCCC(=O)OCC(O)CO` (centres unmarked) [Compound 85, 2,3-dihydroxypropyl 16-(2,6-dichloro-8-methyl-7H-purin-7-yl)hexadecanoate], the pIC50 in assay [1] (read-out: IC50) is 5.30 to 6.00.

What is called pIC50 is −log10 of the IC50, conventionally taken in molar units.
